One assay relates to 22rv1 xenografts. The experiment in a line: 22rv1 xenograft in male nude mice. The class given is in vivo. Particulars: PO Mon/Wed/Fri, vs vehicle. An excerpt:
(§1) Male CD1 nude mice (Charles River, Milan, Italy) were maintained under the guidelines established by the University of L’Aquila, Medical School and Science and Technology School Board Regulations. Experiments on animals have been approved by your local IRB in compliance with the Italian government regulation n.116 January 27, 1992 for the use of laboratory animals which is line with ARRIVE guidelines. All mice received subcutaneous flank injections of 1 x 10^6 PC3, DU145 or 22v1 cells. Tumor growth was measured bi-weekly with a Vernier caliper (length x width). Tumor weight was calculated according to the formula: TW (mg) = tumor volume (mm^3) = d2 x D/2, where d and D are the shortest and longest diameters, respectively. The effects of the treatments were examined as previously described. […]
(§2) Mice were treated by oral gavage with either vehicle control (Pluronic F-68/PVP-K29/32), KPT330 or KPT251. […] In vivo, combinational studies were evaluated by CalcuSyn (Biosoft). For the calculation of CI, the values of cell kill for a fixed tumor volume were considered (determined by the log cell kill (LCK)). LCK was determined as LCKZ (TKC)/(3.3KTd), where Td represents the mean control group doubling time required to reach a fixed tumor volume, expressed in days, whereas T and C are the same values as described above. […]

A further assay has as its system 22rv1 cells. Kind of assay: Western blot of nuclear proteins. As to conditions: 100 nM. The assay is classed as cell-based, human. Here is the method: (§3) Cytoplasmic and nuclear protein extracts were obtained by using the Nuclear/Cytosol Fractionation Kit from Biovision Inc. (Milpitas, CA, USA). Cell extracts and conditioned media from treated and untreated cells were electrophoresed under reducing conditions and transferred to nitrocellulose filter (Schleicher and Schuell GmbH, Dassel, Germany). Non specific binding sites were blocked for 1 h in 5 % non-fat dried milk in a Tris buffer containing 20 mM Tris and 137 mM NaCl (pH 7.6). Blots were incubated with 1 μg/ml of primary antibody diluted in blocking solution for 1 h at room temperature, washed and then incubated for 1 h in secondary antibody diluted 1:3000 in blocking solution. Following an additional wash, reactive bands were visualized by a chemiluminescent detection kit (Supersignal, Perbio Science, Tattenhall, UK) using Bio-Rad gel Doc™ (Bio-Rad Laboratories S.r.l., Milan, Italy).
(§4) The molecular pathways that are induced by XPO-1 inhibition were evaluated by immunoblots, ELISA and immunocytochemical analyses performed in PC3, DU145 and 22rv1 as models of CRPC using 100 nM KPT-330 as reference compound. The effects were monitored in early and chronic treatments. […] In Fig. 3a, we show representative western blots for nuclear and cytoplasm expression of cyclin D1 and XPO-1 in PC3 cell extracts after 2–12 hr of treatment with KPT-330. […] In addition, prolonged treatment with KPT-330 determined a reduction of cyclin D1 protein expression in DU145 cell lines (Fig. 3c). Increased nuclear expression of FOXO3a is visible also by IHC (Fig. 3e) in 22rv1 cells treated with KPT-330. […] Therefore, the inhibition of XPO-1-mediated export machinery may enhance AR signaling (manuscript in preparation). […] Although proteasome inhibitors are considered for treatment of solid tumors, these compounds could reduce the effectiveness of selinexor, requiring further investigation.
(A western blot detects proteins with antibodies after separation by electrophoresis.)

The next assay concerns PC3 cells. The experiment in a line: Western blot of nuclear proteins. The class given is cell-based, human. Particulars: 100 nM, 2-12 hrs. The method, then: as §3, §4
Another assay has as its system PC3 xenografts. Kind of assay: PC3 xenograft in male nude mice. The assay is classed as in vivo. As to conditions: for apoptosis in tumors (TUNEL staining) / cell proliferation in tumors (Ki-67 staining): KPT-251 100 mg/kg or KPT-330 10 mg/kg, sectioned tumors, PC3 xenografts (Fig. 7); for tumor weight: PC3 xenografts, PO Mon/Wed/Fri, vs vehicle. An excerpt: Male CD1 nude mice (Charles River, Milan, Italy) were maintained under the guidelines established by the University of L’Aquila, Medical School and Science and Technology School Board Regulations. Experiments on animals have been approved by your local IRB in compliance with the Italian government regulation n.116 January 27, 1992 for the use of laboratory animals which is line with ARRIVE guidelines. All mice received subcutaneous flank injections of 1 x 10^6 PC3, DU145 or 22v1 cells. Tumor growth was measured bi-weekly with a Vernier caliper (length x width). Tumor weight was calculated according to the formula: TW (mg) = tumor volume (mm^3) = d2 x D/2, where d and D are the shortest and longest diameters, respectively. The effects of the treatments were examined as previously described. Animals were sacrificed by carbon dioxide inhalation and tumors were subsequently removed surgically. A piece of tumor was frozen in liquid nitrogen for protein analysis and another piece was fixed in paraformaldehyde overnight for immunohistochemical analyses.
Mice were treated by oral gavage with either vehicle control (Pluronic F-68/PVP-K29/32), KPT330 or KPT251. Before tumor injection, animals were randomized into seven treatment groups as follows: Group 1: mice (10 animals) receiving 100 μl vehicle PO; Group 2: mice (10 animals) receiving 100 mg/kg KPT-251 every two days (Monday and Friday)/week PO; Group 3: mice (10 animals) receiving 30 mg/kg KPT-251 every two day/week PO; Group 4: mice (10 animals) receiving 10 mg/kg/day PO; Group 5: mice (10 animals) receiving 30 mg/kg KPT-330 every two days/week PO; Group 6: mice (10 animals) receiving 10 mg/kg KPT-330 every two days/week PO; Group 7: mice (10 animals) receiving 3 mg/kg/day KPT-330 PO. Treatments were started when tumor volumes reached approximately 80 mm^3 (Day 0) and were stopped after 28 days. The following parameters were used to quantify the antitumor effects upon different treatments: (1) tumor volume measured during and at the end of experiments, (2) tumor weight measured at the end of experiment, (3) complete response (CR) defined as the disappearance of the target lesion with respect to baseline, (4) partial response (PR) defined as a reduction of greater than 50 % of tumor volume with respect to baseline, (5) stable disease (SD) defined as a reduction of less than 50 % or an increase of less than 100 % of tumor volume with respect to baseline, (6) tumor progression (TP) defined as an increase of greater than […] of tumor volume with respect to baseline, (7) time to progression (TTP). In vivo, combinational studies were evaluated by CalcuSyn (Biosoft). For the calculation of CI, the values of cell kill for a fixed tumor volume were considered (determined by the log cell kill (LCK)). LCK was determined as LCKZ (TKC)/(3.3KTd), where Td represents the mean control group doubling time required to reach a fixed tumor volume, expressed in days, whereas T and C are the same values as described above.
To determine the effects of XPO-1 inhibition on prostate cancer growth in vivo, we used […] aggressive CRPC, PC3, DU145 and 22rv1, cell lines engrafted in male nude mice. Once tumors were established (80–100 mm3 in size), mice were divided into seven different groups (10 mice/group) and treated with varying doses of KPT-251 (10, 30, 100 mg/kg PO QoDx3) and KPT-330 (5, 10, 20 mg/kg PO QoDx3). Tumors were measured for 35 days. The effects of KPT-251 on tumor growth is shown in Fig. 5 and KPT-330 in Fig. 6. The mean tumor weight was calculated for each treatment group. […]

For a further assay, the system named is PC3, DU145 and 22rv1. The experiment in a line: Molecular changes by immunoblots, ELISA and immunocytochemistry. The assay is classed as cell-based, human. The method, then: as §3, §4
A further assay deals with models of aggressive PCa. Kind of assay: In vivo models of aggressive PCa (xenograft not specified). The arrangement: species or system mice.
Text: as §1
Mice were treated by oral gavage with either vehicle control (Pluronic F-68/PVP-K29/32), KPT330 or KPT251. […] In vivo, combinational studies were evaluated by CalcuSyn (Biosoft). For the calculation of CI, the values of cell kill for a fixed tumor volume were considered (determined by the log cell kill (LCK)). LCK was determined as LCKZ (TKC)/(3.3KTd), where Td represents the mean control group doubling time required to reach a fixed tumor volume, expressed in days, whereas T and C are the same values as described above.

In a further assay the test system is DU145 xenografts. The experiment in a line: DU145 xenograft in male nude mice. The class given is in vivo. As to conditions: PO Mon/Wed/Fri, vs vehicle.
Text: as §1, §2

Experimental findings from article PMC4666032, “KPT-330, a potent and selective exportin-1 (XPO-1) inhibitor, shows antitumor effects modulating the expression of cyclin D1 and survivin in prostate cancer models” (BMC Cancer, 2015) are described below.

`O=C(/C=C\n1cnc(-c2cc(C(F)(F)F)cc(C(F)(F)F)c2)n1)NNc1cnccn1` [KPT-330]: the tumor weight result in the assay on 22rv1 xenografts was “reduce tumor weight in a dose-dependent manner”. Moreover, in the assay with 22rv1 cells (22rv1 cells, prolonged exposure), the “total expression of AR, prolonged exposure” value is listed as “significantly reduced”. Further, the “nuclear expression of p53 and MDM2” value in the assay on 22rv1 cells (AR+/p53wt 22rv1 cells) was “increased”. Moreover, in the assay with 22rv1 cells (AR+/p53wt 22rv1 cells, early), the “nuclear expression of AR” value is listed as “increased”. The “nuclear FOXO, p21, p27, cyclin B1” value in the assay with PC3 cells is listed as “nuclear accumulation”. Further, in the assay with PC3 xenografts, the “apoptosis in tumors (TUNEL staining)” value is given as “increased apoptosis”, the “cell proliferation in tumors (Ki-67 staining)” value is given as “decreased cell proliferation” and the tumor weight result is “reduce tumor weight in a dose-dependent manner”. Further, the cell cycle distribution result in the assay on PC3, DU145 and 22rv1 (100 nM, 24, 48 and 72 hrs) was “accumulation of cells in the G1 cell cycle phase with loss of cells in the S and G2/M phase”. Also, in the assay with PC3, DU145 and 22rv1 (100 nM, early treatment), the “XPO-1 localization, early treatment” value is “early XPO-1 nuclear accumulation”; the “cyclin D1 cytosolic levels” value is “strongly reduced”; the “cyclin D1 nuclear expression” value is reported as “increased”. For the same compound, the “XPO-1 protein levels, prolonged treatment” value in the assay with PC3, DU145 and 22rv1 (100 nM, prolonged treatments) is listed as “dramatically reduced”. Moreover, in the assay on PC3, DU145 and 22rv1 (PCa cell lines, Western blots and ELISAs, 100 nM), the “nuclear export of survivin” value is given as “reduced”. In addition, the “antitumor effects compared to KPT-251” value with models of aggressive PCa (at similar dosage) is given as “better antitumor effects”. In addition, the “tumor volume relative to docetaxel-treated animals” value in the assay on models of aggressive PCa (internal control docetaxel, data not shown) is on record as “approximately one-third”. Moreover, the tumor weight result in the assay with DU145 xenografts is listed as “reduce tumor weight in a dose-dependent manner”.
As for `FC(F)(F)c1cc(-c2ncn(/C=C\c3nnco3)n2)cc(C(F)(F)F)c1` [KPT-251], the tumor weight entry in the assay with 22rv1 xenografts is given as “reduce tumor weight in a dose-dependent manner”. Also, in the assay on PC3 xenografts, the “apoptosis in tumors (TUNEL staining)” value is “increased apoptosis”, the “cell proliferation in tumors (Ki-67 staining)” value is listed as “decreased cell proliferation” and the tumor weight entry is “reduce tumor weight in a dose-dependent manner”. Moreover, the tumor weight result in the assay on DU145 xenografts is “reduce tumor weight in a dose-dependent manner”.
